Data as given in PubChem BioAssay AID2060623 (Molecular Pharmacology Branch, DTP, NCI, 2025).
“And” between values parts separate entries of the source, which are not always exact repeats. Equal values may be shown once.

System: 227483-062-R1-J1-PDC complex spheroids with HUVEC/MSC, viability
Experiment: Anticancer human tumor 227483-062-R1-J1-PDC patient-derived pancreatic carcinoma cell line growth inhibition [CLK]
Conditions: for viability, T/C: stronger effect = lower value; active means viability on the fitted dose curve at most 10% of control; inactive means the rest
Outline: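 Patient-derived tumor cells grown as complex spheroids with HUVEC endothelial cells and mesenchymal stem cells, treated with drug combinations. Concentrations descend in half-log steps from near clinical Cmax, or from 10 microM if Cmax unknown.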

[1] = curve of first compound, second compound 0.0316 µM
[2] = curve of first compound, second compound 0.1 µM
[3] = curve of first compound, second compound 0.316 µM
[4] = curve of first compound, second compound 1 µM
[5] = curve of first compound, second compound 3.16 µM
[6] = curve of first compound, second compound 10 µM
[7] = second compound 0.0316 µM, first compound 0.0316 µM
[8] = second compound 0.0316 µM, first compound 0.1 µM
[9] = second compound 0.0316 µM, first compound 0.316 µM
[10] = second compound 0.0316 µM, first compound 1 µM
[11] = second compound 0.0316 µM, first compound 3.16 µM
[12] = second compound 0.0316 µM, first compound 10 µM
[13] = second compound 0.1 µM, first compound 0.0316 µM
[14] = second compound 0.1 µM, first compound 0.1 µM
[15] = second compound 0.1 µM, first compound 0.316 µM
[16] = second compound 0.1 µM, first compound 1 µM
[17] = second compound 0.1 µM, first compound 3.16 µM
[18] = second compound 0.1 µM, first compound 10 µM
[19] = second compound 0.316 µM, first compound 0.0316 µM
[20] = second compound 0.316 µM, first compound 0.1 µM
[21] = second compound 0.316 µM, first compound 0.316 µM
[22] = second compound 0.316 µM, first compound 1 µM
[23] = second compound 0.316 µM, first compound 3.16 µM
[24] = second compound 0.316 µM, first compound 10 µM
[25] = second compound 1 µM, first compound 0.0316 µM
[26] = second compound 1 µM, first compound 0.1 µM
[27] = second compound 1 µM, first compound 0.316 µM
[28] = second compound 1 µM, first compound 1 µM
[29] = second compound 1 µM, first compound 3.16 µM
[30] = second compound 1 µM, first compound 10 µM
[31] = second compound 3.16 µM, first compound 0.0316 µM
[32] = second compound 3.16 µM, first compound 0.1 µM
[33] = second compound 3.16 µM, first compound 0.316 µM
[34] = second compound 3.16 µM, first compound 1 µM
[35] = second compound 3.16 µM, first compound 3.16 µM
[36] = second compound 3.16 µM, first compound 10 µM
[37] = second compound 10 µM, first compound 0.0316 µM
[38] = second compound 10 µM, first compound 0.1 µM
[39] = second compound 10 µM, first compound 0.316 µM
[40] = second compound 10 µM, first compound 1 µM
[41] = second compound 10 µM, first compound 3.16 µM
[42] = second compound 10 µM, first compound 10 µM
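Further: spheroids exposed to compounds for seven days before readout.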
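Wherever viability, T/C is given: percent of DMSO vehicle control luminescence as 100% viability.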

CC1COCCN1c1cc(C2(S(C)(=N)=O)CC2)nc(-c2ccnc3[nH]ccc23)n1 (stereo not drawn) + CNC(=O)c1ccc(Nc2nc(OC3CCCC3)c3c(-c4ccc5nc(C)oc5c4)c[nH]c3n2)c(OC)c1
7.13 µM: IC50 [3]
1.38 µM: IC50 [4]
< 0.0316 µM: IC50 [6]
0.237 µM: IC50 [5]
inactive: viability, T/C [7] 110% | viability, T/C [8] 105% | viability, T/C [9] 110% | viability, T/C [10] 102% | viability, T/C [11] 85.3% | viability, T/C [12] 63.3% | viability, T/C [13] 125% | viability, T/C [14] 108% | viability, T/C [15] 103% | viability, T/C [16] 108% | viability, T/C [17] 65% | viability, T/C [18] 62.3% | viability, T/C [19] 96.4% | viability, T/C [20] 107% | viability, T/C [21] 92.9% | viability, T/C [22] 79.7% | viability, T/C [23] 64.1% | viability, T/C [24] 44.3% | viability, T/C [25] 76.8% | viability, T/C [26] 68.9% | viability, T/C [27] 73.4% | viability, T/C [28] 53% | viability, T/C [29] 39.1% | viability, T/C [30] 30.6% | viability, T/C [31] 59.7% | viability, T/C [32] 52.9% | viability, T/C [33] 48.1% | viability, T/C [34] 40.9% | viability, T/C [35] 33.9% | viability, T/C [36] 18.6% | viability, T/C [37] 39.8% | viability, T/C [38] 34.6% | viability, T/C [39] 39.5% | viability, T/C [40] 32.5% | viability, T/C [41] 24.2% | viability, T/C [42] 14.5%
> 10 µM: IC50 [1] | IC50 [2]

Nc1ccccc1NC(=O)c1ccc(CNC(=O)OCc2cccnc2)cc1
> 10 µM: IC50 (curve of compound)
inactive: viability, T/C (compound 0.0316 µM) 102% and 79.6% | viability, T/C (compound 0.1 µM) 107% and 81.1% | viability, T/C (compound 0.316 µM) 116% and 94.4% | viability, T/C (compound 1 µM) 121% and 101% | viability, T/C (compound 3.16 µM) 135% and 104% | viability, T/C (compound 10 µM) 87.6% and 71.5%

C=CC(=O)N1CCN(c2nc(=O)n(-c3c(C)ccnc3C(C)C)c3nc(-c4c(O)cccc4F)c(F)cc23)C(C)C1 (stereo not drawn) + CNC(=O)c1ccc(Nc2nc(OC3CCCC3)c3c(-c4ccc5nc(C)oc5c4)c[nH]c3n2)c(OC)c1
1.7 µM: IC50 [5]
< 0.0316 µM: IC50 [6]
> 10 µM: IC50 [1] | IC50 [2] | IC50 [3] | IC50 [4]
inactive: viability, T/C [7] 107% | viability, T/C [8] 92% | viability, T/C [9] 135% | viability, T/C [10] 103% | viability, T/C [11] 104% | viability, T/C [12] 108% | viability, T/C [13] 110% | viability, T/C [14] 101% | viability, T/C [15] 111% | viability, T/C [16] 118% | viability, T/C [17] 121% | viability, T/C [18] 107% | viability, T/C [19] 111% | viability, T/C [20] 87.9% | viability, T/C [21] 108% | viability, T/C [22] 104% | viability, T/C [23] 124% | viability, T/C [24] 98.6% | viability, T/C [25] 70.3% | viability, T/C [26] 57.6% | viability, T/C [27] 57.9% | viability, T/C [28] 63.5% | viability, T/C [29] 65.8% | viability, T/C [30] 52.3% | viability, T/C [31] 45.4% | viability, T/C [32] 63.2% | viability, T/C [33] 50.2% | viability, T/C [34] 51.6% | viability, T/C [35] 47.9% | viability, T/C [36] 26.6% | viability, T/C [37] 37.7% | viability, T/C [38] 35.5% | viability, T/C [39] 39.5% | viability, T/C [40] 44.5% | viability, T/C [41] 36% | viability, T/C [42] 18.6%

O=c1[nH]cc(F)c(=O)[nH]1 + CNC(=O)c1ccc(Nc2nc(OC3CCCC3)c3c(-c4ccc5nc(C)oc5c4)c[nH]c3n2)c(OC)c1
inactive: viability, T/C [7] 94.6% | viability, T/C [8] 88.3% | viability, T/C [9] 108% | viability, T/C [10] 62.9% | viability, T/C [11] 41% | viability, T/C [12] 31.2% | viability, T/C [13] 104% | viability, T/C [14] 93.8% | viability, T/C [15] 73.8% | viability, T/C [16] 50.1% | viability, T/C [17] 38.4% | viability, T/C [18] 36% | viability, T/C [19] 71.4% | viability, T/C [20] 91.7% | viability, T/C [21] 66.5% | viability, T/C [22] 47.5% | viability, T/C [23] 37.1% | viability, T/C [24] 24.5% | viability, T/C [25] 80.6% | viability, T/C [26] 56.2% | viability, T/C [27] 60.5% | viability, T/C [28] 32.5% | viability, T/C [29] 22.4% | viability, T/C [30] 18.7% | viability, T/C [31] 46.7% | viability, T/C [32] 46.9% | viability, T/C [33] 41.2% | viability, T/C [34] 26.4% | viability, T/C [35] 18.1% | viability, T/C [36] 13.8% | viability, T/C [37] 44.8% | viability, T/C [38] 39% | viability, T/C [39] 33.1% | viability, T/C [40] 23.5% | viability, T/C [41] 18.9% | viability, T/C [42] 14.6%
0.931 µM: IC50 [3]
0.32 µM: IC50 [4]
1.02 µM: IC50 [2]
1.74 µM: IC50 [1]
< 0.0316 µM: IC50 [5] | IC50 [6]
